From paper PMC6458995, “MAP4K4 Inhibition Promotes Survival of Human Stem Cell-Derived Cardiomyocytes and Reduces Infarct Size In Vivo” (Cell Stem Cell, 2019)

Tests used:
Assay in all cases: HTRF Transcreener ADP kinase assay
Assay type in all cases: biochemical
GCK/MAP4K2 = biological target: T1, GCK/MAP4K2 (Homo sapiens, UniProt Q12851); details: for IC50: HTRF Transcreener ADP assay
T1 sequence (Q12851 1-820): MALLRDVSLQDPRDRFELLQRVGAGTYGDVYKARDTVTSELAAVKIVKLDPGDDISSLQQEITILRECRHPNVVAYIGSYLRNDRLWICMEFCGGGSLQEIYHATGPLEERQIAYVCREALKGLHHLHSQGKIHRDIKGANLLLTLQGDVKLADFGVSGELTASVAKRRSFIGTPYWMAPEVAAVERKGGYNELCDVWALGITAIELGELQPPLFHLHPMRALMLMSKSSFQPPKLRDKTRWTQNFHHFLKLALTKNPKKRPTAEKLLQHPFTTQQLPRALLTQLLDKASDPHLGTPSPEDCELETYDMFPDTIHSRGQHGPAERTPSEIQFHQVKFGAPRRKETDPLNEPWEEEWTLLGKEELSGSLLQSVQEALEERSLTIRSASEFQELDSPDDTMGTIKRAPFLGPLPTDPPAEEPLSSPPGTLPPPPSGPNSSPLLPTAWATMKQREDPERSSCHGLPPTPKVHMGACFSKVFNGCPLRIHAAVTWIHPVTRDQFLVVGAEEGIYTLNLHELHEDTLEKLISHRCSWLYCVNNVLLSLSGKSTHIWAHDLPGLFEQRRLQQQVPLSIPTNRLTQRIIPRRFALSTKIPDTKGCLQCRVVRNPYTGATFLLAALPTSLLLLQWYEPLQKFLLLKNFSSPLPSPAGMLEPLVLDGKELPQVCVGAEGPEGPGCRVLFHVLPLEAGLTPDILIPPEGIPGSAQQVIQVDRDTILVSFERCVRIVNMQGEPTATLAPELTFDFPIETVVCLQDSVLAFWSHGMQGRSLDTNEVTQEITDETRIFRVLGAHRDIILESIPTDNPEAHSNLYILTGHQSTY
Experimental: (§1) MAP4K4 kinase activity was monitored using the CisBio HTRF Transcreener ADP assay, a competitive immunoassay with a reproducible Z’ > 0.6. In the detection step, endogenous ADP and d2-labeled ADP compete for binding an anti-ADP monoclonal antibody labeled with Eu^3+ cryptate. A ratiometric fluorescent readout is used at 665 and 620 nm. […] Assays were run in Greiner low volume plates with a final reaction volume of 10 μl. Percent inhibition was calculated from 100% activity of MAP4K4 (DMSO only) and 0% activity (no enzyme added). Data were either reported as % inhibition at a single dose or as pIC50 values derived from dose response curves (pIC50 = -log[IC50]).
(§2) Kinase selectivity profiling was performed by the International Centre for Kinase Profiling, MRC Protein Phosphorylation and Ubiquitylation Unit (141 kinases; Premier Screen, http://www.kinase-screen.mrc.ac.uk), using a [γ-^33P]ATP filter binding assay ([Bain et al., 2007]). Compounds were screened at 1 μM. For key hits, pIC50 values were then determined by HTRF as above. More complete kinome profiling was performed by Reaction Biology (376 kinases). Stability in mouse and human liver microsomes was determined by Cyprotex.

ABL1 = ABL1 (Homo sapiens, UniProt P00519); details: for IC50: HTRF Transcreener ADP assay
Sequence of ABL1 (P00519 whole entry): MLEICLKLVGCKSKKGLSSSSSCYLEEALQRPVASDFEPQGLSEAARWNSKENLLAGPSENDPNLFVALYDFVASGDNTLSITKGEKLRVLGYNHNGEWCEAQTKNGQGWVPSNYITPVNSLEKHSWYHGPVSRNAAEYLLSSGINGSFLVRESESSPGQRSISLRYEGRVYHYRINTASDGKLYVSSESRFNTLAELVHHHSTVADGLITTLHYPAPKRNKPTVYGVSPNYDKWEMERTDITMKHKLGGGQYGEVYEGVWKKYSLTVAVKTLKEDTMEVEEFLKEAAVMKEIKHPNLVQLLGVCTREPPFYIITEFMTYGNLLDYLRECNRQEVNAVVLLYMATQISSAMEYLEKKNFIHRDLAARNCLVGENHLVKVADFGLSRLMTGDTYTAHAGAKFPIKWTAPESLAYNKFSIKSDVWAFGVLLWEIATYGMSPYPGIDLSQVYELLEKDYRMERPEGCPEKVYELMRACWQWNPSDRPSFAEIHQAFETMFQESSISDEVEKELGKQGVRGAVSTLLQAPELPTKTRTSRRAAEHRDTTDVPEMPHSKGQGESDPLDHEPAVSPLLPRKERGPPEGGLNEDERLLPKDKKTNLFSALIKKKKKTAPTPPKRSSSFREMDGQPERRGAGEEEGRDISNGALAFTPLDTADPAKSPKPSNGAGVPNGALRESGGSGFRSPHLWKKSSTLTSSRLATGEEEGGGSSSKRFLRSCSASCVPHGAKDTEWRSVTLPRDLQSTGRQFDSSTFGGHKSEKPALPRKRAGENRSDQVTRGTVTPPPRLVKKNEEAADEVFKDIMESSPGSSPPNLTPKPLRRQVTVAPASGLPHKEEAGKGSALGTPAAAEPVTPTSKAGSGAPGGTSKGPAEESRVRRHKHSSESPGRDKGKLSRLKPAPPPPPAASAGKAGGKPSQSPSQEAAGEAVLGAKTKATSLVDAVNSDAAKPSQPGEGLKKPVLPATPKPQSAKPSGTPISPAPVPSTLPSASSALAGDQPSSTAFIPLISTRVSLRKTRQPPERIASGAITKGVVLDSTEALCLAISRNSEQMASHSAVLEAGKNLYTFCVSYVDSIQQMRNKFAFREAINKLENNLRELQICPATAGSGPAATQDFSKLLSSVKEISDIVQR
Experimental: as §1, §2

GLK/MAP4K3 = biological target: T2, GLK/MAP4K3 (Homo sapiens, UniProt Q8IVH8); details: for IC50: HTRF Transcreener ADP assay
T2 sequence (Q8IVH8 1-894): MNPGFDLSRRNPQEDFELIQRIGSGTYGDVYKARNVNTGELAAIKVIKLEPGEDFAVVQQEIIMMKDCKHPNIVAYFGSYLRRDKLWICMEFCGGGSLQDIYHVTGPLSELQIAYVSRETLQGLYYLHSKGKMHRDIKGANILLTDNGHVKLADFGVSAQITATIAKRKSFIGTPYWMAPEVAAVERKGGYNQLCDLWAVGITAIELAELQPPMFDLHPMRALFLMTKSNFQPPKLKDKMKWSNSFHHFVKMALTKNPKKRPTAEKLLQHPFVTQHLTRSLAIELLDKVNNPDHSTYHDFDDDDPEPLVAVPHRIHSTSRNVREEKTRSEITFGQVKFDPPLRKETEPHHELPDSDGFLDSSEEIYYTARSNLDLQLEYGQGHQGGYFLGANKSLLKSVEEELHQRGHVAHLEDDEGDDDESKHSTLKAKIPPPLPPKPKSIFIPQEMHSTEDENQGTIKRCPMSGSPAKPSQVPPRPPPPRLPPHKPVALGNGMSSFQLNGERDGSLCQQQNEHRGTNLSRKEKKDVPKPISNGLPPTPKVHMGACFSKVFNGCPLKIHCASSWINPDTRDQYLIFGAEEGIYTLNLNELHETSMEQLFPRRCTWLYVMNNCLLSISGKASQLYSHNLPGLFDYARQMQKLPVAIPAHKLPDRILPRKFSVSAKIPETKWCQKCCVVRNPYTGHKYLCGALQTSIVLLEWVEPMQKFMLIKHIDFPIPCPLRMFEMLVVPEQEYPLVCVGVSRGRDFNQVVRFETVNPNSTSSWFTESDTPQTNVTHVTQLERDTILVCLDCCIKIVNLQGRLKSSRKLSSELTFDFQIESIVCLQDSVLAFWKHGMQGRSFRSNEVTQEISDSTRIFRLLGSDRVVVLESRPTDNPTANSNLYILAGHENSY
Experimental: as §1, §2

MLK1/MAP3K9 = MLK1/MAP3K9 (Homo sapiens, UniProt P80192); details: for IC50: HTRF Transcreener ADP assay
Sequence of MLK1/MAP3K9 (P80192 whole entry): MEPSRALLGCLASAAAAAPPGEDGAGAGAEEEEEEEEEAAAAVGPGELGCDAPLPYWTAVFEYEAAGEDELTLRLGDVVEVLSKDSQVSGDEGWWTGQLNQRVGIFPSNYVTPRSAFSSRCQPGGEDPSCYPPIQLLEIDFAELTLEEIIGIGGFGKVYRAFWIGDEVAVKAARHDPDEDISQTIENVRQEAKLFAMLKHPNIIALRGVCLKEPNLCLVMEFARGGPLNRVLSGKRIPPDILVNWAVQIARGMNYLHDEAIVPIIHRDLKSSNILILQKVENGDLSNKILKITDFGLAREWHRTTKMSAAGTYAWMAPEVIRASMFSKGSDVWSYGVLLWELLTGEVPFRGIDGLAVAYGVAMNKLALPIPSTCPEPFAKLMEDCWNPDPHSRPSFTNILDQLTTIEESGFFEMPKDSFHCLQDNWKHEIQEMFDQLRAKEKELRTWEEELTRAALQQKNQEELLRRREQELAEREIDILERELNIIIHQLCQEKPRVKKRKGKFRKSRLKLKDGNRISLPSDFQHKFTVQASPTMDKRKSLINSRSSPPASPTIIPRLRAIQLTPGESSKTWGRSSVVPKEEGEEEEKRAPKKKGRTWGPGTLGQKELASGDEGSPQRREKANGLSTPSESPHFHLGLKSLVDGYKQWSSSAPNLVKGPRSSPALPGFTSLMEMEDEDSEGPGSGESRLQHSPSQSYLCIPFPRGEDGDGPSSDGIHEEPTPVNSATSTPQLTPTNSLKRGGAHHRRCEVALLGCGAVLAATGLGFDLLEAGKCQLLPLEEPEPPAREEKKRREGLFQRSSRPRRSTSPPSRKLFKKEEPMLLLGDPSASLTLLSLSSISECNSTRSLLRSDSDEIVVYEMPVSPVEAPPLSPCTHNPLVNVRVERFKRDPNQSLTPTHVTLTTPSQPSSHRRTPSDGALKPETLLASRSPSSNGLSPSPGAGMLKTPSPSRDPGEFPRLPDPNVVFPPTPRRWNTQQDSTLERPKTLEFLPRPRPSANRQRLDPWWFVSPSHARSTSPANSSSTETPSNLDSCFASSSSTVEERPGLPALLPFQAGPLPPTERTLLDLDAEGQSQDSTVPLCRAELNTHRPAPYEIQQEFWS
Experimental: as §1, §2

MLK3/MAP3K11 = MLK3/MAP3K11 (Homo sapiens, UniProt Q16584); details: for IC50: HTRF Transcreener ADP assay
Sequence of MLK3/MAP3K11 (Q16584 whole entry): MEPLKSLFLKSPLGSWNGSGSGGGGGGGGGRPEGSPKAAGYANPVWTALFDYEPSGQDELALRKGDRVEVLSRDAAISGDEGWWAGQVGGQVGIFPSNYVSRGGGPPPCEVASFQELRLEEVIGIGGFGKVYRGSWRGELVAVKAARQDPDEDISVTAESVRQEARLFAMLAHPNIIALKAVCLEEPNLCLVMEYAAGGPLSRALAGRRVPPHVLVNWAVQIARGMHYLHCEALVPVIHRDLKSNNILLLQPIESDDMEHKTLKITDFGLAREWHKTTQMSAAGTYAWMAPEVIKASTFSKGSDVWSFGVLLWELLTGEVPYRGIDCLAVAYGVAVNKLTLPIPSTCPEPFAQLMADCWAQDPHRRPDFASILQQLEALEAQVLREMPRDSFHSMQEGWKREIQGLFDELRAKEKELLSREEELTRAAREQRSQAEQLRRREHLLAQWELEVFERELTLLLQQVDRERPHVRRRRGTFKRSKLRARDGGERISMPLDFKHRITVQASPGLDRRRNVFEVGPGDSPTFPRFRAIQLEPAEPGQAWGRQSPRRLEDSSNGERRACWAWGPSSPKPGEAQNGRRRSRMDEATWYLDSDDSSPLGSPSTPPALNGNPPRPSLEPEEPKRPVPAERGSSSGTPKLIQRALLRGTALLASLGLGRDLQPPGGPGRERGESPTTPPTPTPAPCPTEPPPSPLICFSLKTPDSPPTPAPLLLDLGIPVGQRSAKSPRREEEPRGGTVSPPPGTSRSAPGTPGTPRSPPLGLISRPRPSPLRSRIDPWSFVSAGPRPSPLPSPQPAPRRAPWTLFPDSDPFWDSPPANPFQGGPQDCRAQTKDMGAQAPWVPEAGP
Experimental: as §1, §2

Aurora B = biological target: T3, Aurora B (Homo sapiens, UniProt Q96GD4)
T3 construct: lines 1-140) and Reaction Biology
T3 sequence (Q96GD4 whole entry): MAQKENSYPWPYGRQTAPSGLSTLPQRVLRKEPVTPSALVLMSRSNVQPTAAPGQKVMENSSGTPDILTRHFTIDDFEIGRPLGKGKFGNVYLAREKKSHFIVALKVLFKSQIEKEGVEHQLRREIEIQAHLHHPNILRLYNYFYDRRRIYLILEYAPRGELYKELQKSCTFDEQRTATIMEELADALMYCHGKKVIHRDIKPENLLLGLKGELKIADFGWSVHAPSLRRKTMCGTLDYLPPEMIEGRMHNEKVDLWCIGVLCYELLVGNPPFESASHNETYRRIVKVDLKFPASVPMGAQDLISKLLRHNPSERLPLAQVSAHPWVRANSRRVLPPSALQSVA
Experimental: as §1, §2

FLT3 = FLT3 (Homo sapiens, UniProt P36888)
Sequence of FLT3 (P36888 27-993): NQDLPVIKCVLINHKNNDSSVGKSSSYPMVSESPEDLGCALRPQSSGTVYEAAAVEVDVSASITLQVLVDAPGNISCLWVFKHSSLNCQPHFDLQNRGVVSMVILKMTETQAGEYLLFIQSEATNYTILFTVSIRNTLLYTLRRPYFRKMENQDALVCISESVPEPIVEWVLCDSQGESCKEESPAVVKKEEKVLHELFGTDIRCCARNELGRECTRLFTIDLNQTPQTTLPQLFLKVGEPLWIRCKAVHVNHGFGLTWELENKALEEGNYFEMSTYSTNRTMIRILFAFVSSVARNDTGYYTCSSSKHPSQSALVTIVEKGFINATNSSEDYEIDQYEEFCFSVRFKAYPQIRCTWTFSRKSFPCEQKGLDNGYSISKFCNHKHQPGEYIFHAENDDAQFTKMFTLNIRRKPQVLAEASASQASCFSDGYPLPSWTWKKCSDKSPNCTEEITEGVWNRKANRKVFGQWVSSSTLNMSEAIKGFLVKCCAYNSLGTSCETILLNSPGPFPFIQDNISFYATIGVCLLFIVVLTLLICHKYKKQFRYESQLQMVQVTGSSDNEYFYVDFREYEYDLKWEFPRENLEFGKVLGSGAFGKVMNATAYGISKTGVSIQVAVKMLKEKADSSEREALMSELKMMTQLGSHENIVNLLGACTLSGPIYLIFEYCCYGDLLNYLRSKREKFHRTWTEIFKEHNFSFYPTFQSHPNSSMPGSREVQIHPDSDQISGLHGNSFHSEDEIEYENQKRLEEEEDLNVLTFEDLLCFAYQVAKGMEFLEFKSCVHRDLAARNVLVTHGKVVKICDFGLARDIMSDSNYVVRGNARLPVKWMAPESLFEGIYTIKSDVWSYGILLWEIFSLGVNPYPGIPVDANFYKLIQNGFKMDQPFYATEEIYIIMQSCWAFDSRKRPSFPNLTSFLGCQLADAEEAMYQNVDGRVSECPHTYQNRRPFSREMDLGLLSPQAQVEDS
Experimental: as §1, §2

SMILES | IC50 (GCK/MAP4K2; GCK/MAP4K2) [µM] | Fold Selectivity (GCK/MAP4K2; GCK/MAP4K2 versus MAP4K4) | DMX-5804 vs F1386-0303 (GCK/MAP4K2; ratio of fold selectivity, GCK/MAP4K2) | IC50 (ABL1; ABL1) [µM] | Fold Selectivity (ABL1; ABL1 versus MAP4K4) | DMX-5804 vs F1386-0303 (ABL1; ratio of fold selectivity, ABL1) | IC50 (GLK/MAP4K3; GLK/MAP4K3) [µM] | Fold Selectivity (GLK/MAP4K3; GLK/MAP4K3 versus MAP4K4) | DMX-5804 vs F1386-0303 (GLK/MAP4K3; ratio of fold selectivity, GLK/MAP4K3) | IC50 (MLK1/MAP3K9; MLK1/MAP3K9) [µM] | Fold Selectivity (MLK1/MAP3K9; MLK1/MAP3K9 versus MAP4K4) | DMX-5804 vs F1386-0303 (MLK1/MAP3K9; ratio of fold selectivity, MLK1/MAP3K9) | IC50 (MLK3/MAP3K11; MLK3/MAP3K11) [µM] | Fold Selectivity (MLK3/MAP3K11; MLK3/MAP3K11 versus MAP4K4) | DMX-5804 vs F1386-0303 (MLK3/MAP3K11; ratio of fold selectivity, MLK3/MAP3K11) | DMX-5804 vs F1386-0303 (Aurora B; ratio of fold selectivity) | DMX-5804 vs F1386-0303 (FLT3; ratio of fold selectivity) | IC50 (Aurora B; HTRF Transcreener ADP assay) [µM] | IC50 (FLT3; HTRF Transcreener ADP assay) [µM]
COCCOc1ccc(-c2cn(-c3ccccc3)c3nc[nH]c(=O)c23)cc1 [DMX-5804, 5-[4-(2-methoxy-ethoxy)-phenyl]-7-phenyl-3,7-dihydro-pyrrolo[2,3-d]pyrimidin-4-one] | 0.316 | 112 | 3.20 | 1.58 | 560 | 0.65 | 11.2 | 3981 | 4.57 | 0.0646 | 23 | 1.53 | 0.102 | 36 | 1.57 | 1.47 | 18.22 | – | –
Oc1ncnc2c1c(-c1ccccc1)cn2-c1ccccc1 [F1386-0303, 5,7-diphenyl-7H-pyrrolo[2,3-d]pyrimidin-4-ol] | 1.23 | – | – | 30.2 | – | – | 30.2 | – | – | 0.525 | – | – | 0.813 | – | – | – | – | 13.2 | 2.19
